{"source": "patent EP1024807B1", "about": "“USE OF THE COMPOUND 2-METHOXYPHENYL-1-METHYL-5P-METHYLBENZOYL-PYRROL-2-ACETAMIDO ACETATE FOR THE PRODUCTION OF AN ANTI-INFLAMMATORY DRUG WITH PREVENTION OF GASTRIC HYPERSECRETION AND RENAL IMPAIRMENT” (MEDOSAN Ricerca S.r.l., priority 1997, dated 1999)", "key": {"[1]": {"tested_on": "Rats", "assay": "Diuresis in normally hydrated rats", "type": "in vivo", "experimental": "In the course of various studies conducted on animals to show the lack of renal impairment, a test was carried out to compare the diuresis in normally hydrated rats treated orally for 8 consecutive days with amtolmeting guacyl and diclofenac, which is also a NSAID. […] It is to be stressed that the behaviour of diclofenac is completely in line with the behaviour of a NSAID as known in the art, that is to say to markedly reduce the diuresis, while that of amtolmeting guacyl is completely unforeseeable.\nRepeated doses (one per day) for 8 days increased diuresis in the treated rats by 35% (see fig. 13)."}, "[2]": {"tested_on": "rat", "assay": "Chronic oral administration for 52 weeks, gastric damage", "type": "in vivo"}, "[3]": {"tested_on": "human lymphocites cultivated in vitro", "assay": "Chromosome aberrations in lymphocytes in vitro", "type": "cell-based"}, "[4]": {"assay": "Persistence of intact molecule in gastric and intestinal walls", "type": "in vivo", "details": "after oral administration in the rat", "experimental": "The presence of the vanilloid radical, essential to the expression of the gastroprotective mechanism, is guaranteed by the prolonged persistence of high amounts of intact amtolmetin guacyl molecule in the gastric and intestinal walls (at least 2 hours after oral administration in the rat)."}, "[5]": {"tested_on": "Cynomolgous monkey", "assay": "Chronic oral administration for 52 weeks, gastric damage", "type": "in vivo"}, "[6]": {"tested_on": "patients", "assay": "Clinical trials: tolerability, adverse events and suspensions of treatment", "type": "in vivo, man", "details": "in vivo", "from_the_text": "Interest in the amtolmetin guacyl molecule arose following a thorough analysis of the results of 31 comparative and 6 non-comparative clinical trials involving 1596 patients. […] Turthermore the physician, being aware of administering an NSAID, was expecting adverse events and could not be expected to be an impartial observer. The few cases of gastro-intestinal phenomena reported with amtolmetin guacyl were transitory and in no event accompanied by the presence of occult blood in the stools. Moreover, even in the presence of a reported side-effect it was almost never necessary to suspend treatment (0.4% of suspensions).\nFollowing are summarized the results obtained on a total of 1596 patients in 37 clinical trials.\nConfirmation of the above described advantages is the very low incidence of treatment suspension for adverse events found in clinics (Table 17), which is not the case for most of NSAIDs known in the art (Table 18)."}, "[7]": {"tested_on": "guinea-pig isolated ileum", "assay": "Intestinal motility in isolated ileum with various agonists", "details": "all of the traditional agonists (histamine, acetylcholine, serotonin)", "from_the_text": "In parallel we also studied the possible effect on intestinal motility in the guinea-pig isolated ileum (b.r. No. 29) using various agonists (fig. 7, 8 and 9)."}, "[8]": {"tested_on": "rat", "assay": "Fertility, embryotoxicity and teratogenicity studies", "type": "in vivo"}, "[9]": {"tested_on": "rat bone marrow", "assay": "Micronucleus test", "details": "in vivo"}, "[10]": {"tested_on": "Rats", "assay": "Adjuvant arthritis (joint diameter and patellar bone mass)", "type": "in vivo", "details": "for Swelling Diameter difference (L-R) / Joint diameter (mm) Left / Joint diameter (mm) Right: day 0-3; for Joint diameter (mm) Left / Bone mass (mg) Left: left = arthritic joint; for Joint diameter (mm) Right / Bone mass (mg) Right: right = saline control joint; for % Change: ([left-right]/right)X100; for Bone loss Left-Right / Bone mass (mg) Left / Bone mass (mg) Right: patellar bone", "experimental": "The drugs were administered daily by oral gavage for 4 days (day 0-3); piroxicam and MED 15 were dissolved in 5% Gum arabic + 0.01% Tween 80, and administered in a volume of 0.5ml. Piroxicam was administered as 3mg/kg and MED 15 was administered as 25, 50 and 100mg/kg doses. Table 8 bis illustrating dosage regimes. L=left stifle joint, R=Right stifle joint.\nUnder halothane anaesthesia, rats received 200µg of heat-killed finely ground Mycobactyerium tubercolosis in 25µl (80mg/10ml sterile saline) injected intra-articulary into the left stifle joint. The contralateral joint received 25µl 0.9% sterile saline. Control animals received 25µl of 0.9% sterile saline in both knees. SGE 50µl microsyringes with a volume lock calibrated at 25µl were used with 30G stainless steel needles. Solutions were prepared sterile, and aseptic technique was used throughout, with sterilisation of syringes between groups.\nThe rats were killed by carbon dioxide suffocation. The body weight was noted and the skin overlying the stifle joints was divided and the joint diameters assessed in mm using Mitutoyo vernier callipers (530-312, 0.02mm).\nThe patellae were dissected, weighed (Sartorius, 0.01mg) and then immersed in 1ml digestion buffer (see below) to remove soft tissue.\nDigestive buffer was prepared fresh to the following formula; disodium hydrogen orthophosphate 20mM, EDTA 1mM and diothiothreitol at 2mM. Papain (EC 3.4.22.2) was added at a concentration of 6U/ml. Each patella was digested in 1ml of digestive buffer at 56°C for 4 hours. The residual paterllar bones were dried (100°C 24 hours) and weighed (Sartorius 0.01mg).\nResults are presented as follows: left and right parameter alone, the difference between arthritic and contralateral control joint (left-right); and % difference between arthritic and control joints ([left-right]/right]X100).\nCalculations were carried out using the spreadsheet program Lotus 123. Statistical comparisons were made between the absolute differences using INSTAT Mann Whitney unpaired two-tailed statistical test."}, "[11]": {"tested_on": "rat isolated stomach strips", "assay": "Gastric motility in isolated stomach strips, acetylcholine and serotonin as agonists", "details": "acetilcholine and serotonin as agonists"}, "[12]": {"tested_on": "post-traumatic arthralgia", "assay": "Clinical comparison in post-traumatic arthralgia", "type": "in vivo, man", "from_the_text": "The same can be said in the treatment of post-traumatic arthralgia."}, "[13]": {"assay": "Acute toxicity studies", "details": "in vivo"}}, "data": [{"smiles": "COc1ccccc1OC(=O)CNC(=O)Cc1ccc(C(=O)c2ccc(C)cc2)n1C", "note": "[MED 15, 2-methoxyphenyl-1-methyl-5p-methylbenzoylpyrrol-2-acetamido acetate]", "values": [{"measurement": "increased diuresis", "setting": "[1]; repeated doses (one per day) for 8 days", "value": 35, "unit": "%"}, {"measurement": "increased diuresis", "setting": "[1]; single dose, average", "value": 10, "unit": "%"}, {"measurement": "diuresis", "setting": "[1]; treated orally for 8 consecutive days, fig. 13", "value": "definite increase in diuresis"}, {"measurement": "gastric damage", "setting": "[2]", "value": "absence of gastric damage"}, {"measurement": "chromosomic aberrations", "setting": "[3]", "value": "absence of amtolmetin guacyl-related damage"}, {"measurement": "persistence of high amounts of intact molecule in the gastric and intestinal walls", "setting": "[4]", "value": "at least 2 hours"}, {"measurement": "gastric damage", "setting": "[5]", "value": "absence of gastric damage"}, {"measurement": "Treatment suspended", "setting": "[6]; human", "value": 4}, {"measurement": "incidence of adverse events involving the stomach", "setting": "[6]; human", "value": "~5", "unit": "%"}, {"measurement": "reports of gastric discomfort", "setting": "[6]; human", "value": 4, "unit": "%"}, {"measurement": "Treatment suspended", "setting": "[6]; human, 10 days", "value": 3}, {"measurement": "Treatment suspended %", "setting": "[6]; human, 10 days", "value": "1,6%"}, {"measurement": "Treatment suspended", "setting": "[6]; human, 21 days", "value": 0}, {"measurement": "Treatment suspended", "setting": "[6]; human, 30 days", "value": 1}, {"measurement": "Treatment suspended %", "setting": "[6]; human, 30 days", "value": "0,7%"}, {"measurement": "Treatment suspended", "setting": "[6]; human, 60 days", "value": 0}, {"measurement": "Treatment suspended", "setting": "[6]; human, 90 days", "value": 0}, {"measurement": "Treatment suspended", "setting": "[6]; human, 120 days", "value": 0}, {"measurement": "Treatment suspended", "setting": "[6]; human, 150 days", "value": 0}, {"measurement": "Treatment suspended", "setting": "[6]; human, 180 days", "value": 0}, {"measurement": "gastric lesions", "setting": "[6]", "value": "not to induce gastric lesions"}, {"measurement": "variations of the routine biological parameters", "setting": "[6]", "value": "no significant variations"}, {"measurement": "motility", "setting": "[7]", "value": "decrease in motility"}, {"measurement": "fertility, embriotoxicity and teratogenicity", "setting": "[8]", "value": "safety"}, {"measurement": "micronucleus test", "setting": "[9]", "value": "absence of amtolmetin guacyl-related damage"}, {"measurement": "Swelling Diameter difference (L-R)", "setting": "[10]; 25mg/kg daily oral", "value": 2.22, "unit": "mm"}, {"measurement": "Joint diameter (mm) Left", "setting": "[10]; 25mg/kg daily oral", "value": 11.57, "unit": "mm"}, {"measurement": "Joint diameter (mm) Right", "setting": "[10]; 25mg/kg daily oral", "value": 9.35, "unit": "mm"}, {"measurement": "Swelling Diameter difference (L-R)", "setting": "[10]; 50mg/kg daily oral", "value": 2.06, "unit": "mm"}, {"measurement": "Joint diameter (mm) Left", "setting": "[10]; 50mg/kg daily oral", "value": 10.95, "unit": "mm"}, {"measurement": "Joint diameter (mm) Right", "setting": "[10]; 50mg/kg daily oral", "value": 8.88, "unit": "mm"}, {"measurement": "Swelling Diameter difference (L-R)", "setting": "[10]; 100mg/kg daily oral", "value": 1.38, "unit": "mm"}, {"measurement": "Joint diameter (mm) Left", "setting": "[10]; 100mg/kg daily oral", "value": 10.26, "unit": "mm"}, {"measurement": "Joint diameter (mm) Right", "setting": "[10]; 100mg/kg daily oral", "value": 8.88, "unit": "mm"}, {"measurement": "protective effect against bone loss compared to piroxicam", "setting": "[10]; dose of 100mg/kg", "value": "not significantly different to piroxicam"}, {"measurement": "% Change", "setting": "[10]; joint diameter, 25mg/kg daily oral", "value": 24.04, "unit": "%"}, {"measurement": "% Change", "setting": "[10]; joint diameter, 50mg/kg daily oral", "value": 23.36, "unit": "%"}, {"measurement": "% Change", "setting": "[10]; joint diameter, 100mg/kg daily oral", "value": 15.71, "unit": "%"}, {"measurement": "% Change", "setting": "[10]; patellar bone mass, 25mg/kg daily oral", "value": 45.45, "unit": "%"}, {"measurement": "% Change", "setting": "[10]; patellar bone mass, 50mg/kg daily oral", "value": 40.55, "unit": "%"}, {"measurement": "% Change", "setting": "[10]; patellar bone mass, 100mg/kg daily oral", "value": 31.85, "unit": "%"}, {"measurement": "protection against bone loss", "setting": "[10]; patellar bone mass, arthritic groups", "value": "dose dependent protective effect"}, {"measurement": "Bone loss Left-Right", "setting": "[10]; 25mg/kg daily oral", "value": -1.94, "unit": "mg"}, {"measurement": "Bone mass (mg) Left", "setting": "[10]; 25mg/kg daily oral", "value": 2.33, "unit": "mg"}, {"measurement": "Bone mass (mg) Right", "setting": "[10]; 25mg/kg daily oral", "value": 4.27, "unit": "mg"}, {"measurement": "Bone loss Left-Right", "setting": "[10]; 50mg/kg daily oral", "value": -1.69, "unit": "mg"}, {"measurement": "Bone mass (mg) Left", "setting": "[10]; 50mg/kg daily oral", "value": 2.49, "unit": "mg"}, {"measurement": "Bone mass (mg) Right", "setting": "[10]; 50mg/kg daily oral", "value": 4.18, "unit": "mg"}, {"measurement": "Bone loss Left-Right", "setting": "[10]; 100mg/kg daily oral", "value": -1.38, "unit": "mg"}, {"measurement": "Bone mass (mg) Left", "setting": "[10]; 100mg/kg daily oral", "value": 2.97, "unit": "mg"}, {"measurement": "Bone mass (mg) Right", "setting": "[10]; 100mg/kg daily oral", "value": 4.34, "unit": "mg"}, {"measurement": "motility", "setting": "[11]", "value": "down-regulation of motility"}, {"measurement": "duration of effect", "setting": "[12]", "value": 6, "unit": "h"}, {"measurement": "latency time", "setting": "[12]", "value": 20, "unit": "min"}, {"measurement": "time to reach peak effect", "setting": "[12]", "value": 1, "unit": "h"}, {"measurement": "acute toxicity, tolerability", "setting": "[13]", "value": "excellent drug tolerability"}]}]}
